Measured values from patent US20070049564A1 (Wyeth, priority 2005, published 2007).
Values after ≈ are worked out from the molar mass of the structure shown. Like-named read-outs stand apart in the source and are kept apart here.

What was measured:
[1] = tested on: Salmonella spp. GC 235; test: MIC, broth microdilution; settings: Salmonella, SPP.GC235, Salmonella spp. GC 235
[2] = Pharmacokinetics in monkey, IV 2 mg/kg and oral 10 mg/kg; type: in vivo; settings: Oral - MONKEY 10 mg/kg
[3] = tested on: Staph. aureus Smith; test: In vitro activity (MIC) against Staph. aureus Smith; type: cell-based; settings: Staphylococcus aureus
[4] = tested on: Salmonella spp. GC 566; test: MIC, broth microdilution; settings: Salmonella, SPP.GC566, Salmonella spp. GC 566
[5] = tested on: S. cholerasius GC 1355; test: MIC, broth microdilution; settings: S. cholerasius GC 1355
[6] = tested on: E. coli #311; test: In vivo activity (oral, iv; ED50) against E. coli in mice; settings: Escherichia coli
Text: . […] Smith and E. Coli #311 in mammals.
Results of the tests (MIC, oral and IV) are list in Table 7.

[7] = tested on: E. coli; test: In vitro activity (MIC) against E. coli (Table 7); type: cell-based; settings: Escherichia coli
[8] = tested on: E. coli, tet (M,S,O) Tet (M); test: In vitro activity (MIC), strain groups; settings: Human Serum
[9] = tested on: Streptococcus spp.; test: In vitro activity (MIC), strain groups; parameters: MIC: unit not given beside the values
[10] = tested on: E. coli, tet(A-D), efflux; test: In vitro activity (MIC), strain groups
[11] = tested on: Enterococcus spp.; test: In vitro activity (MIC), strain groups; parameters: MIC: unit not given beside the values
[12] = single intravenous dose (SIV), read-out: ED50 E. coli #311 SIV
[13] = single intravenous dose, mice, Table 7, read-out: ED50 SIV (E. coli)
[14] = single oral dose (SOD), read-out: ED50 E. coli #311 SOD
[15] = single oral dose, mice, Table 7, read-out: ED50 SOD (E. coli)

| Structure (SMILES) | MIC ([3]; Table 6) | MIC [7] | ED50 [6, 12] | ED50 [6, 13] | ED50 [6, 14] | ED50 [6, 15] | other results |
| --- | --- | --- | --- | --- | --- | --- | --- |
| CCCCN(CC(=O)Nc1cc(N(C)C)c2c(c1O)C(=O)C1=C(O)[C@]3(O)C(=O)C(C(N)=O)=C(O)[C@@H](N(C)C)C3CC1C2)C(=O)OCOC(=O)C(C)C (stereo partly drawn) [Example 1, ({[(2-{[(7S,10aS)-9-(aminocarbonyl)-4,7-bis(dimethylamino)-1,8,10a,11-tetrahydroxy-10,12-dioxo-5,5a,6,6a,7,10,10a,12-octahydrotetracen-2-yl]amino}-2-oxoethyl)(butyl)amino]carbonyl}oxy)methyl 2-methylpropanoate] | – | – | – | – | – | – | MIC ([1]; Mouse Serum pre-incubation): 1 µg/mL (≈ 1.37 µM); MIC ([1]; Water pre-incubation): 64 µg/mL (≈ 87.7 µM); Cmax [2]: no levels detected; MIC ([3]; Table 8): 4 µg/mL (≈ 5.48 µM); MIC ([4]; Mouse Serum pre-incubation): 2 µg/mL (≈ 2.74 µM); MIC ([4]; Water pre-incubation): 64 µg/mL (≈ 87.7 µM); MIC ([5]; Mouse Serum pre-incubation): 8 µg/mL (≈ 11 µM); MIC ([5]; Water pre-incubation): > 64 µg/mL |
| CN(C)c1cc(NC(=O)CN(C(=O)OCOC(=O)CC(C)(C)C)C(C)(C)C)c(O)c2c1C[C@H]1C[C@H]3[C@H](N(C)C)C(O)=C(C(N)=O)C(=O)[C@@]3(O)C(O)=C1C2=O [Example 42, ({[(2-{[(5aR,6aS,7S,10aS)-9-(aminocarbonyl)-4,7-bis(dimethylamino)-1,8,10a,11-tetrahydroxy-10,12-dioxo-5,5a,6,6a,7,10,10a,12-octahydrotetracen-2-yl]amino}-2-oxoethyl)(tert-butyl)amino]carbonyl}oxy)methyl 3,3-dimethylbutanoate] | 8 µg/mL (≈ 10.6 µM) | > 64 µg/mL | 3.1 mg/kg | 3.1 mg/kg | 30.3 mg/kg | 30.3 mg/kg | – |
| CCCN(CC(=O)Nc1cc(N(C)C)c2c(c1O)C(=O)C1=C(O)[C@]3(O)C(=O)C(C(N)=O)=C(O)[C@@H](N(C)C)[C@@H]3C[C@@H]1C2)C(=O)OCOC(=O)c1ccc(C)cc1 [Example 5, ({[(2-{[(5aR,6aS,7S,10aS)-9-(aminocarbonyl)-4,7-bis(dimethylamino)-1,8,10a,11-tetrahydroxy-10,12-dioxo-5,5a,6,6a,7,10,10a,12-octahydrotetracen-2-yl]amino}-2-oxoethyl)(propyl)amino]carbonyl}oxy)methyl 4-methylbenzoate] | – | > 64 µg/mL | – | 3.17 mg/kg | – | > 64 mg/kg | MIC ([1]; Mouse Serum pre-incubation): 2 µg/mL (≈ 2.62 µM); MIC ([1]; Water pre-incubation): 32 µg/mL (≈ 41.9 µM); MIC ([3]; Table 8): 1 µg/mL (≈ 1.31 µM); MIC ([4]; Mouse Serum pre-incubation): 4 µg/mL (≈ 5.24 µM); MIC ([4]; Water pre-incubation): 64 µg/mL (≈ 83.8 µM); MIC ([5]; Mouse Serum pre-incubation): 16 µg/mL (≈ 20.9 µM); MIC ([5]; Water pre-incubation): > 64 µg/mL |
| CCC(C)(C)C(=O)OCOC(=O)N(CC(=O)Nc1cc(N(C)C)c2c(c1O)C(=O)C1=C(O)[C@]3(O)C(=O)C(C(N)=O)=C(O)[C@@H](N(C)C)[C@@H]3C[C@@H]1C2)C(C)(C)C [Example 44, ({[(2-{[(5aR,6aS,7S,10aS)-9-(aminocarbonyl)-4,7-bis(dimethylamino)-1,8,10a,11-tetrahydroxy-10,12-dioxo-5,5a,6,6a,7,10,10a,12-octahydrotetracen-2-yl]amino}-2-oxoethyl)(tert-butyl)amino]carbonyl}oxy)methyl 2,2-dimethylbutanoate] | 4 µg/mL (≈ 5.28 µM) | > 64 µg/mL | 2.85 mg/kg | 2.85 mg/kg | 42.8 mg/kg | 42.8 mg/kg | – |
| CCCN(CC(=O)Nc1cc(N(C)C)c2c(c1O)C(=O)C1=C(O)[C@]3(O)C(=O)C(C(N)=O)=C(O)[C@@H](N(C)C)[C@@H]3C[C@@H]1C2)C(=O)OCOC(=O)c1ccsc1 [Example 27, ({[(2-{[(5aR,6aS,7S,10aS)-9-(aminocarbonyl)-4,7-bis(dimethylamino)-1,8,10a,11-tetrahydroxy-10,12-dioxo-5,5a,6,6a,7,10,10a,12-octahydrotetracen-2-yl]amino}-2-oxoethyl)(propyl)amino]carbonyl}oxy)methyl thiophene-3-carboxylate] | – | – | > 2 mg/kg | – | > 32 mg/kg | – | MIC [8]: 4-8; MIC ([3]; Table 8): 0.12 µg/mL (≈ 0.159 µM); MIC ([9]; Human Serum): 0.12-2; MIC ([9]; Mouse Serum): <0.06-0.12; MIC ([9]; water): <0.06-0.12; MIC ([10]; Human Serum): 4-16; MIC ([10]; Mouse Serum): 0.5-1; MIC ([11]; Human Serum): 0.5-2; MIC ([11]; Mouse Serum): 0.12-1; MIC ([11]; water): 0.12-1 |
| CC(C)C(=O)OCOC(=O)N(CC(=O)Nc1cc(N(C)C)c2c(c1O)C(=O)C1=C(O)[C@]3(O)C(=O)C(C(N)=O)=C(O)[C@@H](N(C)C)[C@@H]3C[C@@H]1C2)C(C)(C)C [Example 45, ({[(2-{[(5aR,6aS,7S,10aS)-9-(aminocarbonyl)-4,7-bis(dimethylamino)-1,8,10a,11-tetrahydroxy-10,12-dioxo-5,5a,6,6a,7,10,10a,12-octahydrotetracen-2-yl]amino}-2-oxoethyl)(tert-butyl)amino]carbonyl}oxy)methyl 2-methylpropanoate] | 1 µg/mL (≈ 1.37 µM) | 64 µg/mL (≈ 87.7 µM) | 1.8 mg/kg | 1.8 mg/kg | 64 mg/kg | 64 mg/kg | – |
| CCCCCCC(=O)OCOC(=O)N(CC(=O)Nc1cc(N(C)C)c2c(c1O)C(=O)C1=C(O)[C@]3(O)C(=O)C(C(N)=O)=C(O)[C@@H](N(C)C)[C@@H]3C[C@@H]1C2)C(C)(C)C [Example 48, ({[(2-{[(5aR,6aS,7S,10aS)-9-(aminocarbonyl)-4,7-bis(dimethylamino)-1,8,10a,11-tetrahydroxy-10,12-dioxo-5,5a,6,6a,7,10,10a,12-octahydrotetracen-2-yl]amino}-2-oxoethyl)(tert-butyl)amino]carbonyl}oxy)methyl heptanoate] | 0.25 µg/mL (≈ 0.324 µM) | > 64 µg/mL | 1.7 mg/kg | 1.7 mg/kg | 29.8 mg/kg | 29.8 mg/kg | – |

Second part, led by results:

| MIC ([3]; Table 6) | MIC [7] | Structure (SMILES) | ED50 [6, 12] | ED50 [6, 13] | ED50 [6, 14] | ED50 [6, 15] | other results |
| --- | --- | --- | --- | --- | --- | --- | --- |
| 0.25 µg/mL (≈ 0.349 µM) | 64 µg/mL (≈ 89.4 µM) | CCC(=O)OCOC(=O)N(CC(=O)Nc1cc(N(C)C)c2c(c1O)C(=O)C1=C(O)[C@]3(O)C(=O)C(C(N)=O)=C(O)[C@@H](N(C)C)[C@@H]3C[C@@H]1C2)C(C)(C)C [Example 49, ({[(2-{[(5aR,6aS,7S,10aS)-9-(aminocarbonyl)-4,7-bis(dimethylamino)-1,8,10a,11-tetrahydroxy-10,12-dioxo-5,5a,6,6a,7,10,10a,12-octahydrotetracen-2-yl]amino}-2-oxoethyl)(tert-butyl)amino]carbonyl}oxy)methyl propionate] | 2.2 mg/kg | 2.2 mg/kg | 49 mg/kg | 49 mg/kg | – |
| 1 µg/mL (≈ 1.34 µM) | 32 µg/mL (≈ 43 µM) | CC(C)CC(=O)OCOC(=O)N(CC(=O)Nc1cc(N(C)C)c2c(c1O)C(=O)C1=C(O)[C@]3(O)C(=O)C(C(N)=O)=C(O)[C@@H](N(C)C)[C@@H]3C[C@@H]1C2)C(C)(C)C [Example 53, ({[(2-{[(5aR,6aS,7S,10aS)-9-(aminocarbonyl)-4,7-bis(dimethylamino)-1,8,10a,11-tetrahydroxy-10,12-dioxo-5,5a,6,6a,7,10,10a,12-octahydrotetracen-2-yl]amino}-2-oxoethyl)(tert-butyl)amino]carbonyl}oxy)methyl 3-methylbutanoate] | 2.25 mg/kg | 2.25 mg/kg | 46.9 mg/kg | 46.9 mg/kg | – |
| 2 µg/mL (≈ 2.56 µM) | 8 µg/mL (≈ 10.2 µM) | CN(C)c1cc(NC(=O)CN(C(=O)OCOC(=O)c2ccc(F)cc2)C(C)(C)C)c(O)c2c1C[C@H]1C[C@H]3[C@H](N(C)C)C(O)=C(C(N)=O)C(=O)[C@@]3(O)C(O)=C1C2=O [Example 52, ({[(2-{[(5aR,6aS,7S,10aS)-9-(aminocarbonyl)-4,7-bis(dimethylamino)-1,8,10a,11-tetrahydroxy-10,12-dioxo-5,5a,6,6a,7,10,10a,12-octahydrotetracen-2-yl]amino}-2-oxoethyl)(tert-butyl)amino]carbonyl}oxy)methyl 4-fluorobenzoate] | 3.78 mg/kg | 3.78 mg/kg | 43.7 mg/kg | 43.7 mg/kg | – |
| 0.5 µg/mL (≈ 0.649 µM) | > 64 µg/mL | CN(C)c1cc(NC(=O)CN(C(=O)OCOC(=O)C2CCCCC2)C(C)(C)C)c(O)c2c1C[C@H]1C[C@H]3[C@H](N(C)C)C(O)=C(C(N)=O)C(=O)[C@@]3(O)C(O)=C1C2=O [Example 50, ({[(2-{[(5aR,6aS,7S,10aS)-9-(aminocarbonyl)-4,7-bis(dimethylamino)-1,8,10a,11-tetrahydroxy-10,12-dioxo-5,5a,6,6a,7,10,10a,12-octahydrotetracen-2-yl]amino}-2-oxoethyl)(tert-butyl)amino]carbonyl}oxy)methyl cyclohexanecarboxylate] | 2.59 mg/kg | 1.7 mg/kg | > 64 mg/kg | 29.8 mg/kg | – |
